Data: the NIST ThermoML archive (doi:10.1021/je060271a)

Settings: 343.15 K, Liquid, Vibrating tube method

CCCCCCC(=O)OCC(COC(=O)CCCCCC)(COC(=O)CCCCCC)COC(=O)CCCCCC [pentaerythritol tetraheptanoate]
Settings | mass density [kg/m3]
7850.3 kPa | 946.4
7873.8 kPa | 946.5
7893.3 kPa | 946.5
7913.5 kPa | 946.6
7937 kPa | 946.6
7957 kPa | 946.6
7977.2 kPa | 946.6
8001.2 kPa | 946.6
8021.7 kPa | 946.5
8042.2 kPa | 946.6
8067.3 kPa | 946.5
8088 kPa | 946.6
8109.4 kPa | 946.6
8130.2 kPa | 946.6
8151.8 kPa | 946.6
8177.7 kPa | 946.8
8199.3 kPa | 946.8
8220.8 kPa | 946.7
8246.2 kPa | 946.7
8268.1 kPa | 946.7
8290 kPa | 946.7
8311.6 kPa | 946.9
8338.1 kPa | 946.7
8361.6 kPa | 946.7
8384.3 kPa | 946.8
8406.7 kPa | 946.8
8433.8 kPa | 946.9
8456.2 kPa | 946.9
8479.4 kPa | 946.9
8502.3 kPa | 946.8
8530.3 kPa | 946.9
8553.5 kPa | 946.9
8577.2 kPa | 946.9
8605.4 kPa | 947
8629.1 kPa | 947
8653.2 kPa | 947
8683.2 kPa | 947
8702.1 kPa | 947.2
8731.5 kPa | 947.1
8755.6 kPa | 947.1
8780.3 kPa | 947.2
8809.9 kPa | 947.1
8834.4 kPa | 947.2
8864.2 kPa | 947.3
8889.4 kPa | 947.1
8914.2 kPa | 947.2
8939.2 kPa | 947.2
8970.1 kPa | 947.3
8995.6 kPa | 947.2
9022.5 kPa | 947.3
9053.7 kPa | 947.3
9079.4 kPa | 947.3
9110.6 kPa | 947.5
9136.4 kPa | 947.5
9163.7 kPa | 947.4
9195.6 kPa | 947.5
9222.6 kPa | 947.5
9249.7 kPa | 947.4
9282.3 kPa | 947.4
9309.7 kPa | 947.4
9337.9 kPa | 947.6
9371.4 kPa | 947.5
9400.1 kPa | 947.5
9428.6 kPa | 947.6
9456.7 kPa | 947.6
9491 kPa | 947.7
9519.9 kPa | 947.6
9549 kPa | 947.8
9584 kPa | 947.6
9613.7 kPa | 947.9
9649.3 kPa | 947.7
9679.5 kPa | 947.8
9709.5 kPa | 947.9
9739.8 kPa | 947.8
9777.3 kPa | 947.7
9809 kPa | 947.8
9840.2 kPa | 947.9
9878.1 kPa | 948
9910.3 kPa | 947.8
9943.2 kPa | 947.8
9983.2 kPa | 948
10018 kPa | 947.9
10052 kPa | 947.9
10080 kPa | 948.1
10104 kPa | 948.1
10124 kPa | 948
10144 kPa | 948
10169 kPa | 948.1
10189 kPa | 948.2
10207 kPa | 948.2
10224 kPa | 948.1
10244 kPa | 948.2
10261 kPa | 948.2
10281 kPa | 948.2
10298 kPa | 948.3
10315 kPa | 948.2
10335 kPa | 948.2
10352 kPa | 948.3
10370 kPa | 948.3
10390 kPa | 948.3
10408 kPa | 948.2
10425 kPa | 948.3
10445 kPa | 948.3
10463 kPa | 948.3
10481 kPa | 948.2
10502 kPa | 948.4
10520 kPa | 948.3
10537 kPa | 948.3
10558 kPa | 948.4
10576 kPa | 948.3
10594 kPa | 948.4
10613 kPa | 948.5
10635 kPa | 948.4
10655 kPa | 948.5
10673 kPa | 948.4
10692 kPa | 948.5
10710 kPa | 948.5
10732 kPa | 948.5
10750 kPa | 948.5
10769 kPa | 948.6
10791 kPa | 948.6
10810 kPa | 948.6
10832 kPa | 948.8
10851 kPa | 948.6
10870 kPa | 948.6
10893 kPa | 948.6
10909 kPa | 948.6
10932 kPa | 948.7
10951 kPa | 948.6
10975 kPa | 948.7
10994 kPa | 948.7
11014 kPa | 948.7
11033 kPa | 948.8
11056 kPa | 948.7
11076 kPa | 948.8
11096 kPa | 948.8
11120 kPa | 948.9
11140 kPa | 948.8
11160 kPa | 948.7
11184 kPa | 948.8
11204 kPa | 948.8
11224 kPa | 948.8
11245 kPa | 948.8
11269 kPa | 948.8
11289 kPa | 948.9
11310 kPa | 949
11335 kPa | 948.8
11356 kPa | 948.9
11380 kPa | 948.8
11401 kPa | 949.1
11422 kPa | 948.9
11447 kPa | 949
11469 kPa | 949.1
11490 kPa | 949
11511 kPa | 948.9
11537 kPa | 949.2
11558 kPa | 949.1
11584 kPa | 949.2
11606 kPa | 949.1
11627 kPa | 949.2
11649 kPa | 949
11675 kPa | 949.3
11697 kPa | 949.1
11719 kPa | 949.2
11746 kPa | 949.3
11768 kPa | 949.2
11794 kPa | 949.3
11817 kPa | 949.3
11840 kPa | 949.2
11862 kPa | 949.3
11889 kPa | 949.4
11911 kPa | 949.2
11939 kPa | 949.3
11962 kPa | 949.5
11985 kPa | 949.4
12012 kPa | 949.4
12036 kPa | 949.4
12060 kPa | 949.5
12088 kPa | 949.5
12112 kPa | 949.3
12136 kPa | 949.5
12159 kPa | 949.5
12188 kPa | 949.5
12212 kPa | 949.6
12241 kPa | 949.5
12265 kPa | 949.6
12290 kPa | 949.5
12314 kPa | 949.6
12344 kPa | 949.5
12368 kPa | 949.6
12394 kPa | 949.7
12424 kPa | 949.8
12449 kPa | 949.7
12474 kPa | 949.9
12504 kPa | 949.7
12530 kPa | 949.7
12555 kPa | 949.8
12581 kPa | 949.7
12612 kPa | 949.9
12638 kPa | 949.9
12664 kPa | 949.8
12695 kPa | 949.8
12722 kPa | 950
12750 kPa | 949.9
12776 kPa | 950
12803 kPa | 949.8
12834 kPa | 950.1
12861 kPa | 950.1
12894 kPa | 950
12921 kPa | 950.1
12948 kPa | 950
12975 kPa | 950
13007 kPa | 950.1
13035 kPa | 950.2
13069 kPa | 950.1
13098 kPa | 950.1
13127 kPa | 950.2
13155 kPa | 950.2
13189 kPa | 950.3
13217 kPa | 950.3
13246 kPa | 950.3
13275 kPa | 950.3
13311 kPa | 950.4
